Results: patent US11345885B2, “Agent for inducing callus and method for inducing callus” (RIKEN, priority 2014, dated 2022)

Experiments:
[1] = system: hypocotyl of Arabidopsis (Columbia); experiment: Functional analysis of putative fipexide metabolites, morphological observation of cut hypocotyl on 1/2 MS medium; type: cell-based; conditions: for callus induction activity: 0, 5, 15, 30, 45 or 60 μM in 1/2 MS medium, hypocotyl
Excerpt: Fipexide is a compound formed by an amide bond between 4-chlorophenoxyacetic acid and 1-piperonylpiperazine, and fipexide is deduced to be non-enzymatically hydrolyzed in a plant. Thus, treatment with 4-chlorophenoxyacetic acid or 1-piperonylpiperazine alone or treatment with both thereof was attempted.
Arabidopsis (Columbia) was allowed to germinate under weak lighting conditions for 7 days, the hypocotyl cut therefrom was placed on a ½ MS medium supplemented with 4-chlorophenoxyacetic acid and/or 1-piperonylpiperazine at 0, 5, 15, 30, 45, or 60 μM, and morphological observation thereof was conducted.

[2] = system: African violet leaf explants; conditions: cited from earlier work
[3] = system: Arabidopsis (Columbia) wild-type seeds; experiment: Morphological observation of Arabidopsis (Columbia) by treatment with fipexide (seeds sowed in 1/2 MS medium); type: in vivo; conditions: for callus formation (site): 1/2 MS medium, seeds
Method: Wild-type seeds of Arabidopsis (Columbia) were sowed in a ½ MS medium supplemented with fipexide at 0, 15, 30, or 45 μM, and morphological observation was conducted.

[4] = system: root organ of Arabidopsis (Columbia); experiment: Callus induction and redifferentiation by treatment with fipexide (cut root organ); type: cell-based; conditions: fipexide 45 μM for 2 weeks
Method: The root organ of Arabidopsis (Columbia) was cut, treated in a ½ MS medium supplemented with fipexide at 45 μM for 2 weeks to induce a callus, and then cultured in a redifferentiation medium (auxin/cytokinine). […] In contrast, the root organ of Arabidopsis (Columbia) was cut and then cultured in the redifferentiation medium without callus induction. As a result, redifferentiation was not observed (FIG. 2B).

Arabidopsis hypocotyl = experiment: Comparison of fipexide with conventional technique (2,4-D/kinetin) for callus induction; type: cell-based; conditions: fipexide 45 μM vs 2,4-dichlorophenoxyacetic acid 2.26 μM and kinetin 0.465 μM, constant lighting, 87 days
Method: Callus induction in Arabidopsis that was carried out at the optimized auxin/cytokinine concentration (i.e., 2,4-dichlorophenoxyacetic acid at 2.26 μM and kinetin at 0.465 μM) was compared with callus induction that was carried out at the fipexide concentration of 45 μM.

[5] = system: wild-type rice (Nipponbare); experiment: Fipexide activity test using other plants: rice seeds in fipexide medium; type: in vivo
Method: (§1) As with the case of Arabidopsis germination conditions, plants were cultured in a fipexide medium with the use of sterilized seeds.

[6] = system: germinated Eucalyptus seeds; experiment: Fipexide activity test using other plants: Eucalyptus seeds in fipexide medium; type: in vivo
Method: as §1

soybean seed (Tsurunoko) = experiment: Fipexide activity test using other plants: soybean seed in fipexide medium; type: in vivo
Method: as §1

tomato seed (Micro-Tom) = experiment: Fipexide activity test using other plants: tomato seed in fipexide medium; type: in vivo
Method: as §1

[7] = system: cucumber seed (Natsu Suzumi); experiment: Fipexide activity test using other plants: cucumber seed in fipexide medium; type: in vivo
Method: as §1

[8] = system: stalks and roots of wild-type Populus; experiment: Fipexide callus induction and redifferentiation in stalks and roots of Populus; type: cell-based
Method: The induced callus was cultured in a redifferentiation medium (i.e., a MS medium (0.9% agarose and 1.5% sucrose) containing auxin (indoleacetic acid) at 0.15 mg/1 and cytokinine (N^6-2-isopentenyladenine) at 0.5 mg/l or a ½ MS medium (0.9% Phytoagar (agarose for plants) and 0.2% sucrose) containing 3-indolebutyric acid (IBA) at 0.1 mg/l and 6-benzylaminopurine (BAP) at 0.2 mg/l).
The conditions of the aseptic stalk (which is not the hypocotyl) and the root organ sections of wild-type Populus 30 days after cutting in the presence of fipexide are shown at the center of FIG. 7, and the conditions thereof 30 days after the medium was exchanged with a fresh redifferentiation medium are shown on the right of FIG. 7.

[9] = system: Populus stalk samples (Populus tremula x tremuloides T89); experiment: Transformation by the Agrobacterium method utilizing callus induction caused by fipexide; type: cell-based
Method: Under general callus induction conditions for Populus, callus induction was conducted with the use of fipexide instead of auxin/cytokinine, and whether or not Agrobacterium-infected callus was transformed was examined. The GUS gene was introduced into a pH35GS binary vector comprising a Gateway cassette (Kubo M. et al., Genes & Dev., 19, 1855-1860, 2005) (manufactured by […] Innovations Inc.; Production code: IN3-VEC17) using the Gateway system, and the resulting binary vector was used for the Agrobacterium method, so as to confirm infection. 1. From young plants of aseptically cultured Populus (Populus tremula x tremuloides […]) that had been grown in pots, stalk samples (length: 5 mm) were cut. 2. The stalk samples were cultured in the presence of Agrobacterium (for 3 days, in the dark, at 22° C.). 3. After Agrobacterium was washed away, the stalk samples were placed on MS1 medium or modified MS1 medium (containing 30 μM fipexide instead of 3-indolebutyric acid (IBA) and 6-benzylaminopurine (BAP)) and cultured at 25° C. 4. […] Two months after the initiation of callus induction culture, 23 calluses were fixed in 90% (w/w) acetone at -30° C. overnight, the samples were washed twice with 50 mM PBS buffer (pH 7.0), and the samples were subjected to incubation in GUS substrate solution at 37° C. for 15 minutes for staining.

| Compound | callus induction activity [1] | leaf area ([1]; treatment alone) | number and length of lateral roots ([1]; treatment alone) | callus formation efficiency [2] | number of days required from implanting of explants to callus formation, and formation of adventitious shoots and adventitious roots ([2]; treatment at a particular concentration) | callus formation (site) ([3]; fipexide 15 μM (low concentration)) | callus formation (site) ([3]; fipexide 45 μM (high concentration)) | callus formation in the root ([3]; fipexide at high concentration) | redifferentiation in redifferentiation medium (auxin/cytokinine) after callus induction [4] | callus induction efficiency compared with optimized auxin/cytokinine (Arabidopsis hypocotyl) | callus formation ([5]; fipexide 45 μM, 30 days after seed germination) | callus induction ([5]; germinated rice seeds, fipexide medium) | callus induction [6] | callus induction (soybean seed (Tsurunoko)) | callus induction (tomato seed (Micro-Tom)) | callus induction [7] | redifferentiation of the induced callus in redifferentiation medium ([8]; MS medium with indoleacetic acid 0.15 mg/l and N6-2-isopentenyladenine 0.5 mg/l, or 1/2 MS medium with IBA 0.1 mg/l and BAP 0.2 mg/l) | callus induction ([8]; stalks and roots of Populus in fipexide medium) | GUS activity in calluses (transformation) ([9]; 23 calluses, two months after initiation of callus induction culture, 30 μM fipexide) | callus formation on the fourth week ([9]; Agrobacterium-treated stalk samples, 25° C., modified MS1 medium with 30 μM fipexide vs conventional MS1 medium) |
| --- | --- | --- | --- | --- | --- | --- | --- | --- | --- | --- | --- | --- | --- | --- | --- | --- | --- | --- | --- | --- |
| c1cc2c(cc1CN1CCNCC1)OCO2 [1-piperonylpiperazine, 1-(3,4-methylenedioxybenzyl)piperazine] | callus induction activity was not observed | enlarged | increased | – | – | – | – | – | – | – | – | – | – | – | – | – | – | – | – | – |
| O=C(O)COc1ccc(Cl)cc1 [4-chlorophenoxyacetic acid] | callus induction activity was observed | – | – | not high | reduced | – | – | – | – | – | – | – | – | – | – | – | – | – | – | – |
| O=C(COc1ccc(Cl)cc1)N1CCN(Cc2ccc3c(c2)OCO3)CC1 [fipexide, 1-[(p-chlorophenoxy)acetyl]-4-piperonylpiperazine] | callus induction activity was observed | – | – | – | – | callus formation was mainly observed in the root | in the shoot apex | suppressed | redifferentiation was observed | higher than that attained at the optimized auxin/cytokinine concentration | Callus formation was observed | callus induction was observed | callus induction was observed | callus induction was observed | callus induction was observed | callus induction was observed | redifferentiation was observed | callus induction was observed in the stalks and the roots | GUS activity was observed in all samples | many calluses were formed |
